Source: US8426365B2, “Method of treating or preventing tissue deterioration, injury or damage due to congestive heart failure” (Regenerx Biopharmaceuticals, Inc., priority 2005, dated 2013)

Legend:
[1] = tested on: mouse MI-induced heart failure model; experiment: Mouse myocardial infarction (MI) heart failure model; type: in vivo, C57 black mice; settings: 150 μg/mouse i.p. immediately after MI, then every three days for 4 weeks
Procedure: The procedures used in this study are exactly same as that reported in Nature (432:466-472, 2004). Briefly, C57 black mice, 14 weeks old, were used in this study. Mice were given thymosin β4 (Bachem, Lot #FTHYB40501B) (150 μg/mouse) immediately after myocardial infarction and then every three days for 4 weeks by i.p. injection. The parameters of this study included cardiac morphology and function by echocardiography (echo), invasive cardiac function measurement using Millar catheter, survival rate, and histochemical analysis.

normal (BL10) mice [2] = experiment: Grip strength meter, normal (BL10) mice; type: in vivo; settings: BL10 treated
Procedure: (§1) Four groups of mice were treated with thymosin beta 4. Group 1 was normal mice (BL10) that were given placebo (untreated). Group 2 was normal mice that were treated with thymosin beta 4. Group 3 was dystrophin deficient (mdx) mice treated with placebo and Group 4 was mdx mice treated with thymosin beta 4. Mice were treated with 150 micrograms of thymosin beta 4 in 300 microliters of buffer given intraperitoneally twice a week and placebo mice were given 300 microliters of buffer only. The mice exercised on a treadmill at a speed of 12 meters/minute for 30 minutes twice a week. Functional, behavioral and echocardiographic data were obtained at baseline and after 2 months, 4 months and 6 months of treatment.
(§2) Functional data were non-invasive measurements of skeletal muscle function. The muscle strength of the forelimbs and hindlimbs was assessed using a grip strength meter. The animals were allowed to hold onto the meter platform and then were slowly pulled until they lost their grip. The amount of force needed to free the grip was recorded. Multiple measurements were taken for each mouse at each time point. The same protocol was followed for hindlimb muscle strength. Another functional assessment was the Rotarod test. Here, mice were placed on a rotating bar and kept their balance and position as the bar rotated with increasing speed (10 RPM for 1 minute and then increased 0.2 RPM over the next three minutes). The time until the mouse falls was measured. This test was also repeated multiple times.

[3] = tested on: dystrophin deficient (mdx) mice; experiment: Grip strength meter, dystrophin deficient (mdx) mice; type: in vivo; settings: Mdx treated
Procedure: as §1, §2

normal (BL10) mice [4] = experiment: VersaMax animal activity monitoring, normal (BL10) mice; type: in vivo; settings: BL10 treated
Procedure: as §1
(§3) Behavioral data was collected using the VersaMax™ animal activity monitoring system. Mice were placed in a monitored box and activity was quantified by different sensors. Data includes horizontal activity, vertical activity and total distance traveled and many other activity parameters were measured. Multiple measurements were made over a 3 day period.

[5] = tested on: dystrophin deficient (mdx) mice; experiment: VersaMax animal activity monitoring, dystrophin deficient (mdx) mice; type: in vivo; settings: Mdx treated
Procedure: as §1, §3

normal (BL10) mice [6] = experiment: Rotarod test, normal (BL10) mice; type: in vivo; settings: BL10 treated, time until the mouse falls
Procedure: as §1
(§4) Functional data were non-invasive measurements of skeletal muscle function. The muscle strength of the forelimbs and hindlimbs was assessed using a grip strength meter. The animals were allowed to hold onto the meter platform and then were slowly pulled until they lost their grip. The amount of force needed to free the grip was recorded. Multiple measurements were taken for each mouse at each time point. The same protocol was followed for hindlimb muscle strength. Another functional assessment was the Rotarod test. […] The time until the mouse falls was measured. […]

[7] = tested on: dystrophin deficient (mdx) mice; experiment: Rotarod test, dystrophin deficient (mdx) mice; type: in vivo; settings: Mdx treated, time until the mouse falls
Procedure: as §1, §4

[8] = tested on: heart attack in the mouse model; settings: administered immediately following a heart attack; Nature 2004; cited from earlier work
[9] = 2 month, 150 micrograms i.p. twice a week

**Q.** For “thymosin beta 4 (SDKPDMAEIEKFDKSKLKKTETQEKNPLPSKETIEQEKQAGES; Thymosin beta-4; UniProt P62328 2-44, looked up) [43 amino acid, 4.9 kDa ubiquitous polypeptide originally isolated from the thymus]”, which “left ventricular end diastolic pressure (LVEDP)” value [1] is on record?
**A.** significantly reduced

**Q.** And the “left ventricular end diastolic volume” value [1]?
**A.** significantly attenuated

**Q.** And the “left ventricular end systolic volume” value [1]?
**A.** significantly attenuated

**Q.** And the “left ventricular systolic pressure (LVSP)” value [1]?
**A.** showed a trend in improvement (i.e., a reduction)

**Q.** And the “rate of change (velocity) in left ventricular pressure-rise with time (dP/dt)” value [1]?
**A.** significantly improved

**Q.** And the “rate of change (velocity) in left ventricular relaxation” value [1]?
**A.** showed a trend in affecting (improving)

**Q.** What about the “pulmonary edema (lung weight)” value ([1]; listed as TB4) of the same substance?
**A.** significantly attenuated

**Q.** And the “thickening of left ventricle / heart muscle (heart weight)” value ([1]; listed as TB4)?
**A.** significantly attenuated

**Q.** And the “Avg max forelimb strength” value (normal (BL10) mice [2]; [9])?
**A.** 5.73 KGF/kg

**Q.** And the “Avg max hindlimb strength” value (normal (BL10) mice [2]; [9])?
**A.** 9.18 KGF/kg

**Q.** And the “Avg max forelimb strength” value (normal (BL10) mice [2]; Baseline)?
**A.** 5.57 KGF/kg

**Q.** And the “Avg max hindlimb strength” value (normal (BL10) mice [2]; Baseline)?
**A.** 7.35 KGF/kg

**Q.** What about the “Avg max forelimb strength” value [3, 9] of the same substance?
**A.** 3.78 KGF/kg

**Q.** What about the “Avg max hindlimb strength” value [3, 9] of the same substance?
**A.** 7.29 KGF/kg

**Q.** What about the “Avg max forelimb strength” value ([3]; Baseline) of the same substance?
**A.** 4.46 KGF/kg

**Q.** And the “Avg max hindlimb strength” value ([3]; Baseline)?
**A.** 6.29 KGF/kg

**Q.** And the Avg horizontal activity (normal (BL10) mice [4]; [9])?
**A.** 1287

**Q.** What about the Avg movement time (normal (BL10) mice [4]; [9]) of the same substance?
**A.** 27 s

**Q.** What about the Avg total distance (normal (BL10) mice [4]; [9]) of the same substance?
**A.** 239 cm

**Q.** And the Avg vertical activity (normal (BL10) mice [4]; [9])?
**A.** 13.1

**Q.** And the Avg horizontal activity (normal (BL10) mice [4]; Baseline)?
**A.** 1761

**Q.** And the Avg movement time (normal (BL10) mice [4]; Baseline)?
**A.** 41 s

**Q.** And the Avg total distance (normal (BL10) mice [4]; Baseline)?
**A.** 375 cm

**Q.** And the Avg vertical activity (normal (BL10) mice [4]; Baseline)?
**A.** 28

**Q.** What about the Avg horizontal activity [5, 9] of the same substance?
**A.** 961

**Q.** What about the Avg movement time [5, 9] of the same substance?
**A.** 18.9 s

**Q.** And the Avg total distance [5, 9]?
**A.** 167 cm

**Q.** What about the Avg vertical activity [5, 9] of the same substance?
**A.** 8.2

**Q.** And the Avg horizontal activity ([5]; Baseline)?
**A.** 1071

**Q.** And the Avg movement time ([5]; Baseline)?
**A.** 25 s

**Q.** And the Avg total distance ([5]; Baseline)?
**A.** 209 cm

**Q.** What about the Avg vertical activity ([5]; Baseline) of the same substance?
**A.** 12

**Q.** What about the Rotorod (normal (BL10) mice [6]; [9]) of the same substance?
**A.** 191

**Q.** What about the Rotorod (normal (BL10) mice [6]; Baseline) of the same substance?
**A.** 214

**Q.** And the Rotorod [7, 9]?
**A.** 147

**Q.** And the Rotorod ([7]; Baseline)?
**A.** 211

**Q.** What about the ejection fraction [8] of the same substance?
**A.** able to improve

**Q.** What about the fractional shortening [8] of the same substance?
**A.** able to improve
